# From ChEMBL document CHEMBL3885881, “DrugMatrix”
# Species on record: Rattus norvegicus
# Assay: DrugMatrix - Regimen: Daily Repeat
# Format: toxicity, organism-based, Sprague-Dawley
# Design: regimen Daily Repeat, gender Male, age 6-8 weeks
# Conditions: in vivo, po, route oral GAVAGE, vehicle .5 % CMC; for ABSOLUTE BASOPHIL / ABSOLUTE EOSINOPHIL / ABSOLUTE LYMPHOCYTE / ABSOLUTE MONOCYTE / ABSOLUTE SEGMENTED NEUTROPHIL / BASOPHIL / EOSINOPHIL / ERYTHROCYTE COUNT / HEMATOCRIT / HEMOGLOBIN / LEUKOCYTE COUNT / LYMPHOCYTE / MEAN CORPUSCULAR HEMOGLOBIN / MEAN CORPUSCULAR HEMOGLOBIN CONCENTRATION / MEAN CORPUSCULAR VOLUME / MONOCYTE / NEUTROPHIL / NUCLEATED RED BLOOD CELLS / PLATELET COUNT: tissue Blood; for ALANINE AMINOTRANSFERASE / ALBUMIN / ALKALINE PHOSPHATASE / ASPARTATE AMINOTRANSFERASE / BLOOD UREA NITROGEN / CARBON DIOXIDE / CHLORIDE / CHOLESTEROL / CREATINE PHOSPHOKINASE / CREATININE / GLUCOSE / LACTATE DEHYDROGENASE / LIPASE / PHOSPHORUS / POTASSIUM / SODIUM / TOTAL BILIRUBIN / TOTAL PROTEIN / URIC ACID: tissue Plasma
# [1] = 0 mg/kg, 72 h, dose level Control, time 3 day
# [2] = 0 mg/kg, 120 h, dose level Control, time 5 day
# [3] = 100 mg/kg, 72 h, dose level Low, time 3 day
compound,measurement,setting,value
NC(=O)CN1CCCC1=O,ABSOLUTE BASOPHIL,[1],0 CELLS/uL
same,ABSOLUTE EOSINOPHIL,[1],0 CELLS/uL
same,ABSOLUTE LYMPHOCYTE,[1],12191.17 CELLS/uL
same,ABSOLUTE MONOCYTE,[1],183.17 CELLS/uL
same,ABSOLUTE SEGMENTED NEUTROPHIL,[1],1192.33 CELLS/uL
same,BASOPHIL,[1],0%
same,EOSINOPHIL,[1],0%
same,ERYTHROCYTE COUNT,[1],5.51 x10E6/uL
same,HEMATOCRIT,[1],35.45%
same,HEMOGLOBIN,[1],13.82 G/DL
same,LEUKOCYTE COUNT,[1],13.57 x10E3/uL
same,LYMPHOCYTE,[1],89.83%
same,MEAN CORPUSCULAR HEMOGLOBIN,[1],25.1 pg
same,MEAN CORPUSCULAR HEMOGLOBIN CONCENTRATION,[1],38.98 G/DL
same,MEAN CORPUSCULAR VOLUME,[1],64.42 fL
same,MONOCYTE,[1],1.33%
same,NEUTROPHIL,[1],8.83%
same,NUCLEATED RED BLOOD CELLS,[1],0 /100WBC
same,PLATELET COUNT,[1],1118.17 x10E3/uL
same,ALANINE AMINOTRANSFERASE,[1],55 u/L
same,ALBUMIN,[1],4.15 G/DL
same,ALKALINE PHOSPHATASE,[1],449.5 u/L
same,ASPARTATE AMINOTRANSFERASE,[1],112.83 u/L
same,BLOOD UREA NITROGEN,[1],17.33 mg/dL
same,CARBON DIOXIDE,[1],29.5 mmol/L
same,CHLORIDE,[1],101 MEQ/L
same,CHOLESTEROL,[1],70 mg/dL
same,CREATINE PHOSPHOKINASE,[1],1325.83 u/L
same,CREATININE,[1],0.18 mg/dL
same,GLUCOSE,[1],171.5 mg/dL
same,LACTATE DEHYDROGENASE,[1],386 u/L
same,LIPASE,[1],10 u/L
same,PHOSPHORUS,[1],11.57 mg/dL
same,POTASSIUM,[1],6.21 MEQ/L
same,SODIUM,[1],141.65 MEQ/L
same,TOTAL BILIRUBIN,[1],0.15 mg/dL
same,TOTAL PROTEIN,[1],5.75 G/DL
same,URIC ACID,[1],1.28 mg/dL
same,ABSOLUTE BASOPHIL,[2],0 CELLS/uL
same,ABSOLUTE EOSINOPHIL,[2],138.17 CELLS/uL
same,ABSOLUTE LYMPHOCYTE,[2],13283.17 CELLS/uL
same,ABSOLUTE MONOCYTE,[2],303.83 CELLS/uL
same,ABSOLUTE SEGMENTED NEUTROPHIL,[2],1308.17 CELLS/uL
same,BASOPHIL,[2],0%
same,EOSINOPHIL,[2],1%
same,ERYTHROCYTE COUNT,[2],5.32 x10E6/uL
same,HEMATOCRIT,[2],33.8%
same,HEMOGLOBIN,[2],13.63 G/DL
same,LEUKOCYTE COUNT,[2],15.03 x10E3/uL
same,LYMPHOCYTE,[2],88.33%
same,MEAN CORPUSCULAR HEMOGLOBIN,[2],25.68 pg
same,MEAN CORPUSCULAR HEMOGLOBIN CONCENTRATION,[2],40.35 G/DL
same,MEAN CORPUSCULAR VOLUME,[2],63.67 fL
same,MONOCYTE,[2],1.83%
same,NEUTROPHIL,[2],8.83%
same,NUCLEATED RED BLOOD CELLS,[2],0 /100WBC
same,PLATELET COUNT,[2],1097.5 x10E3/uL
same,ALANINE AMINOTRANSFERASE,[2],54.5 u/L
same,ALBUMIN,[2],4.27 G/DL
same,ALKALINE PHOSPHATASE,[2],337 u/L
same,ASPARTATE AMINOTRANSFERASE,[2],94.67 u/L
same,BLOOD UREA NITROGEN,[2],17 mg/dL
same,CARBON DIOXIDE,[2],28.33 mmol/L
same,CHLORIDE,[2],101.5 MEQ/L
same,CHOLESTEROL,[2],71.33 mg/dL
same,CREATINE PHOSPHOKINASE,[2],628.17 u/L
same,CREATININE,[2],0.19 mg/dL
same,GLUCOSE,[2],177.83 mg/dL
same,LACTATE DEHYDROGENASE,[2],500.5 u/L
same,LIPASE,[2],9.5 u/L
same,PHOSPHORUS,[2],12.3 mg/dL
same,POTASSIUM,[2],5.63 MEQ/L
same,SODIUM,[2],143.03 MEQ/L
same,TOTAL BILIRUBIN,[2],0.2 mg/dL
same,TOTAL PROTEIN,[2],6.02 G/DL
same,URIC ACID,[2],1.5 mg/dL
same,ABSOLUTE BASOPHIL,[3],0 CELLS/uL
same,ABSOLUTE EOSINOPHIL,[3],0 CELLS/uL
same,ABSOLUTE LYMPHOCYTE,[3],10885.67 CELLS/uL
same,ABSOLUTE MONOCYTE,[3],0 CELLS/uL
same,ABSOLUTE SEGMENTED NEUTROPHIL,[3],981 CELLS/uL
same,BASOPHIL,[3],0%
same,EOSINOPHIL,[3],0%
same,ERYTHROCYTE COUNT,[3],5.15 x10E6/uL
same,HEMATOCRIT,[3],32.9%
same,HEMOGLOBIN,[3],13.47 G/DL
same,LEUKOCYTE COUNT,[3],11.87 x10E3/uL
same,LYMPHOCYTE,[3],92%
same,MEAN CORPUSCULAR HEMOGLOBIN,[3],26.17 pg
same,MEAN CORPUSCULAR HEMOGLOBIN CONCENTRATION,[3],40.97 G/DL
same,MEAN CORPUSCULAR VOLUME,[3],63.87 fL
same,MONOCYTE,[3],0%
same,NEUTROPHIL,[3],8%
same,NUCLEATED RED BLOOD CELLS,[3],0 /100WBC
same,PLATELET COUNT,[3],1222.67 x10E3/uL
same,ALANINE AMINOTRANSFERASE,[3],51.33 u/L
same,ALBUMIN,[3],4.07 G/DL
same,ALKALINE PHOSPHATASE,[3],403 u/L
same,ASPARTATE AMINOTRANSFERASE,[3],87.67 u/L
same,BLOOD UREA NITROGEN,[3],15 mg/dL
same,CARBON DIOXIDE,[3],25 mmol/L
same,CHLORIDE,[3],102.33 MEQ/L
same,CHOLESTEROL,[3],61 mg/dL
same,CREATINE PHOSPHOKINASE,[3],556.33 u/L
same,CREATININE,[3],0.2 mg/dL
same,GLUCOSE,[3],204.67 mg/dL
same,LACTATE DEHYDROGENASE,[3],170.67 u/L
same,LIPASE,[3],10 u/L
same,PHOSPHORUS,[3],13.13 mg/dL
same,POTASSIUM,[3],5.4 MEQ/L
same,SODIUM,[3],143.3 MEQ/L
same,TOTAL BILIRUBIN,[3],0.1 mg/dL
same,TOTAL PROTEIN,[3],5.5 G/DL
same,URIC ACID,[3],1.8 mg/dL
